# Results: patent US20080293699A1, “Inhibitors of thapsigargin-induced cell death” (priority 2007, published 2008)
# Legend:
# [1] = system: phospho-p38 MAPK; test: Thapsigargin-induced p38 MAPK phosphorylation in CSM14.1 cells (immunoblotting and MSD assay); format: cell-based, rat
# Source text: After confirming the pathway selectivity of compounds, additional downstream assays can be performed to map the specific signal transduction pathway inhibited by the compounds. In this regard, various antibody reagents are commercially available for assessing the status of the three major pathways known to be activated by ER stress: (1) PERK, (2) Ire1, and (3) ATF6 (Xu et al., J. Clinical Invest., 115:2656-2664, 2005). Immunoblotting experiments can be performed to assess the expression or phosphorylation (using phospho-specific antibodies) of marker proteins in these pathways. […] Cell lysates were prepared and analyzed by SDS-PAGE/immunoblotting using antibodies specific for phospho-c-Jun, phospho-eIF2α, phospho-p38 MAPK, and tubulin (a loading control). […] After two hrs, cell lysates were prepared, normalized for protein content, and either analyzed by SDS-PAGE/immunoblotting using anti-p38-MAPK pan-reactive antibody or phospho-specific antibody with ECL-based detection, followed by densitometry analysis of x-ray films, normalizing phosphor-p38 MAPK relative to total p38 MAPK, or analyzed using a meso-scale instrument from MSD and a procedure in which total p38 MAPK is captured on plates, and the relative amounts of phosphorylated protein were determined using phospho-specific antibody (MSD catalog #K15112D1). […]
# [2] = system: primary rat cortical neurons; test: Thapsigargin-induced death of primary cortical neurons, microscopy assay (NeuN, Hoechst); format: cell-based
# Procedure: (§1) In addition to CSM14.1 cells, when tested at 25 μM, Compound 5962123 protected by >50% against thapsigargin-induced death of several tumor cell lines (HeLa human cervical cancer, SW1 melanoma cell, PPC1, human prostate cancer), mouse neural stem cell C17.2 (both differentiated [neuronal phenotype] and non-differentiated [stem cell phenotype]) as determined by ATP content assay, and primary rat cortical neurons as determined by microscopy assay measuring the percentage of NeuN-immunopositive cells with either normal or apoptotic nuclear morphology (Hoechst dye staining).
# Description of secondary screens. The secondary screens used to characterize compound 5962123 (many of which were used to characterize all 11 benzodiazepines) are outlined above. Thirty-one secondary screens have been used to date to characterize compound 5962123. […] Finally, compound 2878746 inhibits thapsigargin-induced cell death of rat primary cortical neurons (identified by staining with NeuN), as determined by counting apoptotic […] (NeuN)-positive cells stained with the DNA-binding fluorochrome Hoechst dye to identify cells with condensed nuclear morphology indicative of apoptosis and evidence of neurite retraction.
# [3] = system: PPC1, human prostate cancer; test: Thapsigargin-induced death of PPC1 cells, ATP content assay; format: cell-based
# Procedure: as §1
# For PC12, cells were stimulated with 20 ng/ml NGF for five days; for C17.2, cells were stimulated with serum reduction, and 1% N2 incubation for three days; for CSM14.1, cells were cultured at 39° C. for 5-7 days.
# [4] = system: protein phosphatase 2B (Calcineurin); test: In vitro phosphatase assay with immunoprecipitated ASK1 (ser 967 site) as substrate; format: biochemical; settings: 100 μM
compound,measurement,setting,value
"CCN(CC)c1ccc(C2Nc3ccccc3NC3=C2C(=O)CC(c2ccccc2)C3)cc1 (centres unmarked) [Compound 5962123, 6-(4-diethylaminophenyl)-9-phenyl-5,6,8,9,10,11-hexahydrobenzo[c][1,5]benzodiazepin-7-one]",Thapsigargin-induced phosphorylation of p38MAPK,"[1]; CSM14.1, immunoblotting and MSD assay, 10 μM, 25 μM hits",inhibits
same,IC50,"[1]; quantitative ELISA-methods, thapsigargin-treated CSM14.1, estimated, read-out: IC50 for p38MAPK phosphorylation",< 5 µM
same,"Protection against thapsigargin-induced death, primary rat cortical neurons","[2]; 25 μM, microscopy, NeuN-immunopositive cells, Hoechst nuclear morphology",> 50%
same,Inhibition of thapsigargin-induced cell death of rat primary cortical neurons,"[2]; counting apoptotic NeuN-positive cells, Hoechst dye",inhibits
same,"Protection against thapsigargin-induced death, PPC1","[3]; 25 μM, ATP content assay",> 50%
same,Cytoprotective activity in thapsigargin-treated PPC-1,[3]; ATP content assay,demonstrated
same,"Cytoprotective activity, PPC1 (Result)","[3]; thapsigargin 15 μM, ATP content, compound ≦25 μM",+ (+indicates >50% rescue of cell viability relative to untreated cells not exposed to thapsigargin at compound concentration of ≦25 μM)
same,Activity of protein phosphatase 2B (Calcineurin),[4],did not affect
